In article PMC6430500, “3-Fluoro-4-hydroxyprolines: Synthesis, Conformational Analysis, and Stereoselective Recognition by the VHL E3 Ubiquitin Ligase for Targeted Protein Degradation” (Journal of the American Chemical Society, 2018):
Where two headings read alike, the source gives them in different places.

Columns and labels:
VBC = biological target: T1, VBC (Homo sapiens, UniProt P40337); experiment: ITC of PROTACs, binary complex PROTAC–VBC; type: binding; settings: for ΔG / ΔH / –TΔS / Kd: PROTAC in cell, VBC in syringe; for Kd: mean ± SEM
T1 construct: VHL (54–213), ElonginC (17–112) and; His6 (N, cleaved yes); made in house; host or cells: Escherichia coli BL21(DE3)
From the text: (§1) structure (C2 R, C3 S, C4 R) assumed on the basis of unchanging stereogenic centres in the synthesis.
(§2) Final R(F) = 0.033, wR(F 2) = 0.085 for 275 parameters and 3901 reflections with I > 2σ(I) (corresponding R-values based on all 4067 reflections = 0.035 and 0.086, respectively), CCDC […]
(§3) Protein expression and purification.
(§4) Wild-type versions of human proteins VHL (UniProt accession number: P40337), ElonginC […]
(§5) expression. For expression of VBC, N-terminally His6-tagged VHL (54–213), ElonginC (17–112) and ElonginB (1–104) were co- expressed in Escherichia coli BL21(DE3) at 24 °C for 16 h using 0.3 mM isopropyl β-D -1-thiogalactopyranoside (IPTG). E. coli cells were lysed using a pressure cell homogenizer (Stansted Fluid Power) and lysate clarified by centrifugation. His6-tagged VCB was purified on a HisTrap FF affinity column (GE Healthcare) by elution with an imidazole gradient. The His6tag was removed using TEV protease and the untagged complex dialyzed into low -concentration imidazole buffer. VCB was then flowed through the HisTrap FF column a second time, allowing impurities to bind, as the complex eluted without binding. VCB was then additionally purified by anion exchange and size-exclusion chromatography using ResourceQ and Superdex-75 columns (GE Healthcare), respectively. The final purified complex was stored in 20 mM Bis–Tris, pH 7, 150 mM sodium chloride and 1 mM dithiothreitol (DTT). Brd2BD1 (71–194), and Brd4BD2 (333–460) were expressed with an N-terminal His6 tag in E. coli BL21(DE3) at 18 °C for 20 h using 0.2 mM IPTG.
(§6) His6-tagged BDs were purified on nickel Sepharose 6 fast flow beads (GE Healthcare) by elution with increasing concentrations of imidazole. For crystallography the His6-tagged BD was cleaved with TEV protease and dialyzed into low-concentration imidazole buffer. The BD was then flowed over the nickel beads a second time to remove impurities and protease. BDs were then additionally purified by size-exclusion chromatography using a Superdex-75 column. The BDs were purified by size-exclusion chromatography using a Superdex-75 column. The final purified proteins were stored in 20 mM 4-(2-hydroxyethyl)-1-piperazineethanesulfonic acid (HEPES), pH 7.5, 150 mM sodium chloride and 1 mM DTT. All chromatography purification steps were performed using Äkta FPLC purification systems (GE Healthcare) or glass econo-columns (Bio-Rad) at room temperature.
(§7) Isothermal titration calorimetry (ITC) of peptides and ligands
(§8) Titrations were performed on an ITC200 micro-calorimeter (GE Healthcare). The peptides were dissolved in buffer (20 mM Bis–Tris propane, 100 mM NaCl, 1 mM tris(2-carboxyethyl)phosphine […]
(§9) (TCEP), pH 7.4) at 100 µM. The compounds were titrated against 10 µM VBC complex, equilibrated in the same buffer. The titrations consisted of 20 injections of 2 µL of peptide solution at a rate of 0.5 µL/s at 120 s time intervals. An initial injection of ligand (0.4 µL) was made and discarded during data analysis. All experiments were performed at 25°C while stirring at 650 rpm.
(§10) Ligands 14a- b were diluted from DMSO stock solution to 300 µM in buffer (20 mM Bis-Tris propane, 150 mM NaCl, 1 mM TCEP, pH 7.4). The compounds were titrated against 30 µM VBC complex, equilibrated in the same buffer. The final concentration of DMSO in each experiment was […]
(§11) The data were fitted to a single-binding-site model using the MicroCal PEAQ-ITC analysis software provided by the manufacturer to obtain the stoichiometry n, the dissociation constant K d, and the enthalpy of binding ΔH . The reported values are the mean ± s.e.m. from independent measurements.
(§12) Isothermal titration calorimetry (ITC)of PROTACs
(§13) The titrations were all performed as reverse mode (protein in syringe, ligand in cell) and consisted of 19 injections of 2 µl protein solution (20 mM Bis–Tris propane, 100 mM NaCl, 1 mM tris(2-carboxyethyl)phosphine (TCEP), pH 7.4) at a rate of 0.5 µl/s at 120 s time intervals. An initial injection (0.4 µl) was made and discarded during data analysis. […]

VBC and Brd4BD2 = biological target: T2, VBC and Brd4BD2 (Homo sapiens, UniProt O60885+P40337); experiment: ITC ternary complex formation, VBC titrated into PROTAC:Brd4BD2; type: binding; settings: for α (cooperativity): Kd binary,VBC/Kd ternary; for α (cooperativity) / ΔΔG: Brd4BD2; for Kd / ΔG / ΔH / –TΔS: PROTAC:Brd4BD2 in cell, VBC in syringe; for ΔΔG: ternary vs binary
T2 construct: VHL (54–213), ElonginC (17–112) and; Brd4BD2 (333–460); His6 (N, cleaved yes); made in house; host or cells: E. coli BL21(DE3)
From the text: as §1, §2, §3, §4, §5, §6, §7, §8, §9, §10, §11, §12, §13

MV4;11 cells = experiment: CellTiter-Glo cell viability assay; type: cell-based; settings: for EC50: MV4-11, 72 h
Method: MV4;11 cells (15000 cells per well) were dosed for 72 h with compounds serially diluted (1:3) on a clear-bottom 384-well plate with a final concentration of 0.05% (v/v) DMSO. After treatment, Promega CellTiter-Glo luminescent cell viability assay (G7572) was added to the cells according to the manufacturer instructions. The signal from each well was recorded on a BM G Labtech Pherastar luminescence plate reader with recommended settings.
Normalized data were analyzed and plotted with Graphpad Prism software in the ‘log(inhibitor) vs. response -- Variable slope (four parameters)’ module. EC50 values of each test compound were […]

Row | SMILES | ΔG (VBC) | ΔH (VBC) | –TΔS (VBC) | Kd (VBC) | α (cooperativity) (VBC and Brd4BD2) | Kd (VBC and Brd4BD2) | ΔG (VBC and Brd4BD2) | ΔH (VBC and Brd4BD2) | –TΔS (VBC and Brd4BD2) | ΔΔG (VBC and Brd4BD2) | pEC50, antiproliferative activity (MV4;11 cells; 72 h) | Emax (MV4;11 cells; Homo sapiens, 72 h, read-out: Emax, maximal response at highest concentration) | EC50 (MV4;11 cells; Homo sapiens, read-out: EC50, antiproliferative activity) | EC50 (MV4;11 cells; Homo sapiens, read-out: pEC50, antiproliferative activity (converted)) | fold weaker ligand for VBC (VBC; 15b compared to 15a) | antiproliferative effect (in words) (MV4;11 cells; 72 h, compared to MZ1 or 15a)
1 | Cc1ncsc1-c1ccc(CNC(=O)[C@@H]2[C@@H](F)[C@@H](O)CN2C(=O)[C@@H](NC(=O)COCCOCCOCCNC(=O)C[C@@H]2N=C(c3ccc(Cl)cc3)c3c(sc(C)c3C)-n3c(C)nnc32)C(C)(C)C)cc1 [15a] | -9.01 ± 0.02 kcal/mol | -7.9 ± 0.3 kcal/mol | -1.1 ± 0.2 kcal/mol | 249 ± 6 nM | 9.5 | 26 ± 5 nM | -10.13 kcal/mol | -10.9 ± 0.7 kcal/mol | -0.6 ± 0.4 kcal/mol | -1.12 kcal/mol | 6.5 | 92% | 330 nM | 330 nM | – | –
2 | Cc1ncsc1-c1ccc(CNC(=O)[C@@H]2[C@H](F)[C@@H](O)CN2C(=O)[C@@H](NC(=O)COCCOCCOCCNC(=O)C[C@@H]2N=C(c3ccc(Cl)cc3)c3c(sc(C)c3C)-n3c(C)nnc32)C(C)(C)C)cc1 [15b] | -8.49 ± 0.07 kcal/mol | -5.0 ± 0.2 kcal/mol | -3.7 ± 0.2 kcal/mol | 603 ± 74 nM | 14.5 | 42 ± 6 nM | -10.01 kcal/mol | -7.75 kcal/mol | -2.34 kcal/mol | -1.6 ± 0.1 kcal/mol | – | – | – | – | 2.5 fold | much weaker antiproliferative effect
